Experimental data as given in ChEMBL document CHEMBL1201862, “PubChem BioAssay data set” (2004).
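Method: 48-hour compound exposure of cells in 96-well plates, five concentrations, linear interpolation of endpoints. At the GI50, growth is halved.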 Active and inactive are the calls of the source. Cut-off read from the data, not from the text of the source: active = GI50 up to about 1.1 µM and inactive = higher. Where a SMILES comes first, the peptide text is derived from it. [ ]: non-standard residue; d: D form. Ac5c = NC1(C(=O)O)CCCC1

Tests used:
Assay in all cases: NCI tumour cell line growth inhibition, 48 h
NCI-H460 = tested on: NCI-H460
BT-549 = tested on: BT-549
OVCAR-3 = tested on: OVCAR-3
RXF 393 = tested on: RXF 393
SK-MEL-5 = tested on: SK-MEL-5
DU-145 = tested on: DU-145
HCC 2998 = tested on: HCC 2998
NCI-H23 = tested on: NCI-H23
A549 = tested on: A549
M14 = tested on: M14
CCRF-CEM = tested on: CCRF-CEM
IGROV-1 = tested on: IGROV-1
NCI/ADR-RES = tested on: NCI/ADR-RES
OVCAR-5 = tested on: OVCAR-5
SNB-75 = tested on: SNB-75
Hs-578T = tested on: Hs-578T
MDA-MB-231 = tested on: MDA-MB-231
A498 = tested on: A498
RPMI-8226 = tested on: RPMI-8226

Measured: GI50

CN(CCO)CCCC1COc2ccccc2O1 (configuration not stated)
inactive: NCI-H460 > 100 µM | BT-549 > 100 µM | OVCAR-3 > 100 µM | RXF 393 > 100 µM | SK-MEL-5 > 100 µM | DU-145 > 100 µM | HCC 2998 > 100 µM | NCI-H23 > 100 µM | A549 > 100 µM | M14 > 100 µM | CCRF-CEM > 100 µM | IGROV-1 > 100 µM | NCI/ADR-RES > 100 µM | OVCAR-5 > 100 µM | SNB-75 > 100 µM

CCCCc1ccc(C#CC#Cc2ccc(CCCC)s2)s1
inactive: NCI-H460 > 100 µM | OVCAR-3 > 100 µM | RXF 393 > 100 µM | SK-MEL-5 > 100 µM | DU-145 > 100 µM | HCC 2998 > 100 µM | NCI-H23 > 100 µM | Hs-578T > 100 µM | MDA-MB-231 > 100 µM | M14 > 100 µM | CCRF-CEM 4.39 µM | IGROV-1 > 100 µM | NCI/ADR-RES > 100 µM | OVCAR-5 > 100 µM | A498 > 100 µM | SNB-75 > 100 µM | RPMI-8226 > 100 µM

COC(=O)[C@@]12CSC[C@]1(C(=O)OC)N[C@@H](c1ccccc1O)C2
inactive: NCI-H460 > 100 µM | BT-549 > 100 µM | OVCAR-3 > 100 µM | RXF 393 > 100 µM | SK-MEL-5 > 100 µM | DU-145 > 100 µM | HCC 2998 > 100 µM | NCI-H23 > 100 µM | Hs-578T > 100 µM | A549 > 100 µM | M14 > 100 µM | CCRF-CEM > 100 µM | IGROV-1 > 100 µM | NCI/ADR-RES > 100 µM | OVCAR-5 > 100 µM | A498 > 100 µM | SNB-75 > 100 µM | RPMI-8226 > 100 µM

COc1c(Br)cc(/C=C(\C#N)c2cccnc2)cc1Br
inactive: NCI-H460 37.8 µM | BT-549 30.5 µM | OVCAR-3 99.1 µM | RXF 393 51.5 µM | SK-MEL-5 43.7 µM | DU-145 > 100 µM | HCC 2998 48 µM | NCI-H23 32.7 µM | A549 53.1 µM | M14 43.4 µM | CCRF-CEM > 100 µM | IGROV-1 63 µM | NCI/ADR-RES 34.9 µM | OVCAR-5 30.3 µM | SNB-75 > 100 µM | RPMI-8226 > 100 µM

Cc1noc(NC(=O)Nc2ccccc2F)c1C#N
inactive: NCI-H460 6.55 µM | BT-549 > 100 µM | OVCAR-3 64.3 µM | RXF 393 > 66.8 µM | SK-MEL-5 45.7 µM | DU-145 49.8 µM | HCC 2998 2.12 µM | NCI-H23 > 81.3 µM | Hs-578T > 34.4 µM | A549 26.1 µM | M14 > 24.4 µM | CCRF-CEM 70.6 µM | IGROV-1 > 91.6 µM | NCI/ADR-RES > 100 µM | OVCAR-5 > 28.4 µM | A498 > 35 µM | SNB-75 97.1 µM | RPMI-8226 > 74.8 µM

Nc1nc2c(ncn2Cc2ccccc2CCO)c(=O)[nH]1
inactive: NCI-H460 > 100 µM | OVCAR-3 > 100 µM | RXF 393 > 100 µM | SK-MEL-5 > 100 µM | HCC 2998 > 100 µM | NCI-H23 > 100 µM | A549 > 100 µM | M14 > 100 µM | CCRF-CEM > 100 µM | IGROV-1 > 100 µM | OVCAR-5 > 100 µM | A498 > 100 µM | SNB-75 > 100 µM | RPMI-8226 > 100 µM

COC(=O)C1(NC(=O)C(C)NC(=O)C(CCCCN)NC(=O)C(CC(C)C)NC(C)=O)CCCC1 (configuration not stated) (Ac-LKA[Ac5c]-OMe; configuration not given here)
inactive: NCI-H460 > 100 µM | SK-MEL-5 > 100 µM | HCC 2998 > 100 µM | Hs-578T > 100 µM | A549 > 100 µM | MDA-MB-231 > 100 µM | M14 > 100 µM | CCRF-CEM > 100 µM | IGROV-1 > 100 µM | SNB-75 > 100 µM | RPMI-8226 > 100 µM

COc1c(O)cc(C(=O)O[C@@H]2Cc3c(O)cc(O)cc3O[C@@H]2c2cc(O)c(O)c(O)c2)cc1O
inactive: NCI-H460 24.5 µM | BT-549 25.3 µM | OVCAR-3 49.4 µM | RXF 393 18.4 µM | SK-MEL-5 26.7 µM | DU-145 20.3 µM | HCC 2998 97.1 µM | NCI-H23 31.5 µM | Hs-578T > 100 µM | A549 23 µM | M14 59.4 µM | IGROV-1 46.2 µM | NCI/ADR-RES 32.9 µM | OVCAR-5 39.4 µM | A498 94.6 µM | RPMI-8226 24.3 µM

CC1=CC(C)C(O)C(C)/C=C\C(O)C/C=C(/C)C(=O)CC(O)C(C)\C=C/C=C\C=C/C(=O)NC2=C(O)C(=O)c3c(cc(C)c(O)c3C1=O)C2=O (configuration not stated)
inactive: NCI-H460 > 100 µM | BT-549 > 100 µM | OVCAR-3 > 100 µM | SK-MEL-5 91 µM | DU-145 76.6 µM | HCC 2998 86.1 µM | NCI-H23 > 100 µM | Hs-578T 46 µM | A549 > 100 µM | MDA-MB-231 > 100 µM | M14 > 100 µM | CCRF-CEM 69.2 µM | IGROV-1 74.8 µM | NCI/ADR-RES > 100 µM | OVCAR-5 > 100 µM | SNB-75 25 µM | RPMI-8226 > 100 µM
